ChEMBL document CHEMBL1155239, “Structure-guided development of selective TbcatB inhibitors” (J Med Chem, 2009)

Legend:
[1] = tested on: Raji; assay: Cytotoxicity against human Raji cells after 72 hrs by alamar blue assay; type: ADME, cell-based
[2] = tested on: HEK293; assay: Cytotoxicity against human HEK293 cells after 72 hrs by alamar blue assay; type: ADME, cell-based; conditions: HEK293, 72 h
[3] = Inhibition of Trypanosoma brucei cathepsin B expressed in Pichia pastoris
[4] = tested on: BJ; assay: Cytotoxicity against human BJ cells after 72 hrs by alamar blue assay; type: ADME, cell-based
[5] = tested on: HepG2; assay: Cytotoxicity against human HepG2 cells after 72 hrs by alamar blue assay; type: ADME, cell-based; conditions: HepG2, 72 h
[6] = molecular target: Procathepsin L (Homo sapiens, UniProt P07711); assay: Inhibition of human liver cathepsin L
Procathepsin L, sequence (P07711 whole entry): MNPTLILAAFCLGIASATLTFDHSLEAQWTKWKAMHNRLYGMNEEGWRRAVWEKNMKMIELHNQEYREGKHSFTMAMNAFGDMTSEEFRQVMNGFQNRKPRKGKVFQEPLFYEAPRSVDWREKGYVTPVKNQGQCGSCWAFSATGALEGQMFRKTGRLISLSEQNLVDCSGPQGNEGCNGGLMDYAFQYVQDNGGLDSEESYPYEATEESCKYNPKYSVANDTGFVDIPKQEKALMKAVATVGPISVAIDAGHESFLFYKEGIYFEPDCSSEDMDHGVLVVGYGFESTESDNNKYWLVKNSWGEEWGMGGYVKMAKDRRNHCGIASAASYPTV

[7] = tested on: Trypanosoma brucei; assay: Antitrypanosomal activity against Trypanosoma brucei after 48 hrs; type: functional, organism-based
[8] = molecular target: Rhodesain (Trypanosoma brucei rhodesiense, UniProt Q95PM0); assay: Inhibition of Trypanosoma brucei rhodesiense rhodesain
Rhodesain, sequence (Q95PM0 whole entry): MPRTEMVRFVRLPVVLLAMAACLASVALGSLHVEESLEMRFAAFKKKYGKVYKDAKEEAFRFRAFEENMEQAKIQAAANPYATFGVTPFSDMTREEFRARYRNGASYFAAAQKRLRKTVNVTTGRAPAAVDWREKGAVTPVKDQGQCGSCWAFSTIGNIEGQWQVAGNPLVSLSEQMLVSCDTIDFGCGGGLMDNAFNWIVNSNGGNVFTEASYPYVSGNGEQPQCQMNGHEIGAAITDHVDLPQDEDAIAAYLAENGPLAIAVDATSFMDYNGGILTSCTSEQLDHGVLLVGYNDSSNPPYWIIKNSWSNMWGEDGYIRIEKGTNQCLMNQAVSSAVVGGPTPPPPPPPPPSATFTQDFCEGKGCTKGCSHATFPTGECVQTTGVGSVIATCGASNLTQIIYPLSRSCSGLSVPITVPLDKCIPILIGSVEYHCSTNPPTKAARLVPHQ

[9] = molecular target: Cathepsin B (Homo sapiens, UniProt P07858); assay: Inhibition of human liver cathepsin B

Row | Structure (SMILES) | EC50 [1] [nM] | EC50 [2] [nM] | IC50 [3] [nM] | EC50 [4] [nM] | EC50 [5] [nM] | IC50 [6] [nM] | EC50 [7] [nM] | IC50 [8] [nM] | IC50 [9] [nM]
1 | C=Cc1cccc(-c2cccc(CNc3nc(C#N)nc4c3ncn4CCCO)c2)c1 | > 10000 | > 10000 | 800 | > 10000 | > 10000 |  |  |  | 
2 | N#Cc1nc(NCc2cccc(-c3ccsc3)c2)c2ncn(CCCO)c2n1 | > 10000 | > 10000 | 370 | > 10000 | > 10000 | 480 | 430 | 240 | 
3 | N#Cc1nc(NCc2cccc(-c3cccnc3)c2)c2ncn(CCCO)c2n1 | > 10000 | > 10000 | 600 | > 10000 | > 10000 | 1600 | 1400 | 260 | 
4 | N#Cc1nc(NCc2cccc(-c3ccc4ccccc4c3)c2)c2ncn(CCCO)c2n1 | > 10000 | > 10000 | 230 | > 10000 | > 10000 | 800 | 1100 | 700 | 
5 | N#Cc1nc(NCc2cccc(-c3ccc4cc[nH]c4c3)c2)c2ncn(CCCO)c2n1 | > 10000 | > 10000 | 240 | > 10000 | > 10000 | 460 | 800 | 260 | 
6 | CC(=O)Nc1cccc(-c2cccc(CNc3nc(C#N)nc4c3ncn4CCCO)c2)c1 | > 10000 | > 10000 | 1600 | > 10000 | > 10000 |  | 4100 |  | 
7 | N#Cc1nc(NCc2cccc(-c3c(F)c(F)c(F)c(F)c3F)c2)c2ncn(CCCO)c2n1 | > 10000 | > 10000 | 900 | > 10000 | > 10000 | 2700 |  | 5200 | 
8 | COC(=O)c1ccccc1-c1cccc(CNc2nc(C#N)nc3c2ncn3CCCO)c1 |  |  | 1000 |  |  | 1400 | 700 | > 10000 | > 15000
9 | CC(C)Oc1c(Br)cccc1-c1cccc(CNc2nc(C#N)nc3c2ncn3CCCO)c1 | > 10000 | > 10000 | 900 | > 10000 | > 10000 | 1300 |  | 1500 | > 50000
10 | C=Cc1ccc(-c2cccc(CNc3nc(C#N)nc4c3ncn4CCCO)c2)cc1 | > 10000 | > 10000 | 900 | > 10000 | > 10000 | 1100 |  | 1800 | 
11 | N#Cc1nc(NCc2cccc(-c3ccc(Cl)cc3)c2)c2ncn(CCCO)c2n1 |  |  |  |  |  | 1900 |  | 1400 | 
12 | COc1ccc(-c2cccc(CNc3nc(C#N)nc4c3ncn4CCCO)c2)cc1 | > 10000 | > 10000 | 1200 | > 10000 | > 10000 | 1100 |  | 800 | 
13 | Cc1cccc(C)c1-c1cccc(CNc2nc(C#N)nc3c2ncn3CCCO)c1 |  |  | 270 |  |  | 1000 |  | > 15000 | 
14 | N#Cc1nc(NCc2cccc(-c3cc(Cl)cc(Cl)c3)c2)c2ncn(CCCO)c2n1 | > 10000 | > 10000 | 1200 | > 10000 | > 10000 | 900 | 3300 | 1100 | 
15 | N#Cc1nc(NCc2cccc(-c3cccs3)c2)c2ncn(CCCO)c2n1 | > 10000 | > 10000 | 600 | > 10000 | > 10000 | 900 |  | 800 | 
16 | COC(=O)c1cccc(-c2cccc(CNc3nc(C#N)nc4c3ncn4CCCO)c2)c1 | > 10000 | > 10000 |  | > 10000 | > 10000 |  | 2700 | 500 | 

Row | Structure (SMILES) | EC50 [1] [nM] | EC50 [2] [nM] | IC50 [3] [nM] | EC50 [4] [nM] | EC50 [5] [nM] | IC50 [6] [nM] | EC50 [7] [nM] | IC50 [8] [nM] | IC50 [9] [nM]
17 | N#Cc1nc(NCc2cccc(-c3ccccc3C(F)(F)F)c2)c2ncn(CCCO)c2n1 | > 10000 | > 10000 | 280 | > 10000 | > 10000 | 1500 |  | 8000 | 
18 | COC(=O)c1ccc(-c2cccc(CNc3nc(C#N)nc4c3ncn4CCCO)c2)cc1 | > 10000 | > 10000 | 1600 | > 10000 | > 10000 | 1800 | 4000 | 1200 | 
19 | N#Cc1nc(NCc2cccc(-c3cc4ccccc4n3S(=O)(=O)c3ccccc3)c2)c2ncn(CCCO)c2n1 | > 10000 | > 10000 | > 15000 | > 10000 | > 10000 | 1800 |  | 9000 | > 50000
20 | N#Cc1nc(NCc2cccc(-c3ccc4[nH]ccc4c3)c2)c2ncn(CCCO)c2n1 | > 10000 | > 10000 | 250 | > 10000 | > 10000 | 190 | 380 | 500 | 
21 | N#Cc1nc(NCc2cccc(-c3ccccc3Cl)c2)c2ncn(CCCO)c2n1 |  |  | 1300 |  |  | 16000 |  | 20000 | 
22 | N#Cc1nc(NCc2cccc(-c3ccc(Cl)c(Cl)c3)c2)c2ncn(CCCO)c2n1 | > 10000 | > 10000 | 1200 | > 10000 | > 10000 | 1600 | 2300 | 900 | 
23 | Cc1ccccc1-c1cccc(CNc2nc(C#N)nc3c2ncn3CCCO)c1 |  |  | 390 |  |  | 1100 |  | > 50000 | 
24 | N#Cc1nc(NCc2cccc(-c3cn(S(=O)(=O)c4ccccc4)c4ccccc34)c2)c2ncn(CCCO)c2n1 | > 10000 | > 10000 | > 15000 | > 10000 | > 10000 | 1000 | 2000 | 2000 | > 50000
25 | CN(C)c1cccc(-c2cccc(CNc3nc(C#N)nc4c3ncn4CCCO)c2)c1 | > 10000 | > 10000 | 1200 | > 10000 | > 10000 | 1400 |  | 900 | 
26 | N#Cc1nc(NCc2cccc(-c3cccc(Cl)c3)c2)c2ncn(CCCO)c2n1 | > 10000 | > 10000 | 800 | > 10000 | > 10000 | 700 | 3700 | 1200 | 
27 | N#Cc1nc(NCc2cccc(-c3ccco3)c2)c2ncn(CCCO)c2n1 | > 10000 | > 10000 | 1000 | > 10000 | > 10000 | 840 | 1600 | 310 | 
28 | COc1ncc(-c2cccc(CNc3nc(C#N)nc4c3ncn4CCCO)c2)c(OC)n1 | > 10000 | > 10000 | 2900 | > 10000 | > 10000 | 6000 | 5900 | 4000 | > 15000
29 | N#Cc1nc(NCc2cccc(-c3ccccc3)c2)c2ncn(CCCO)c2n1 | > 10000 | > 10000 | 1800 | > 10000 | > 10000 | 800 | 1400 | 700 | 
30 | N#Cc1nc(NCc2cccc(-c3ccoc3)c2)c2ncn(CCCO)c2n1 | > 10000 | > 10000 | 460 | > 10000 | > 10000 | 600 | 560 | 30 | 
31 | CC(C)c1ccccc1-c1cccc(CNc2nc(C#N)nc3c2ncn3CCCO)c1 |  |  | 310 |  |  | 900 | 630 |  | 
